Earlier results in patent US6959708B1, “Method for co-application of gases and drugs to potentiate their action in relieving headaches, angina and other ailments” (Capnia, Incorporated, priority 1999, dated 2005).
Where two headings read alike, the source gives them in different places.

What was measured:
[1] = test system: transpulmonary gradient and pulmonary vascular resistance; conditions: inhaled low dose
pulmonary hypertension = conditions: in vivo
[2] = test system: serotonin-induced bronchial smooth muscle contraction
[3] = test system: central and peripheral airways; conditions: asthmatic adults
[4] = co-application of a 10% CO2 concentration
[5] = drug alone, without CO2 co-application

Compound	inhibition of serotonin-induced bronchial smooth muscle contraction [2, 4] [%]	inhibition of serotonin-induced bronchial smooth muscle contraction [2, 5] [%]	also measured
nitric oxide [NO]	–	–	pulmonary vasoselectivity [1]: highly pulmonary vasoselective; reduction of transpulmonary gradient and pulmonary vascular resistance compared with sodium nitroprusside and prostacyclin ([1]; in vivo and clinical tests): as effective as sodium nitroprusside and prostacyclin; effect on pulmonary hypertension (pulmonary hypertension): reverse pulmonary hypertension
CN1[C@@H]2CC[C@H]1C[C@@H](OC(=O)C(CO)c1ccccc1)C2 (some centres unmarked) [atropine]	62	46	–
C[N+](C)(C)CCCCCC[N+](C)(C)C [hexamethonium]	67	37	–
O=C=O [CO2, carbon dioxide]	–	–	effect on airways [3]: relax both central and peripheral airways
